# Assay results as given in EP4818330A1, “PHARMACEUTICAL PREPARATION FOR DIAGNOSING AND TREATING ALZHEIMER'S DISEASE” (Shanghai East Hospital Tongji University, priority 2023, dated 2025).
# Where “and” joins values, the source holds several entries; their conditions need not be identical. Equal entries are not always repeated.
# Assays:
# [1] = system: 293T cell line; test: CCK8 cell viability (toxicity) assay in 293T cell line; format: cell-based; conditions: 293T, 24 h, CCK8, three replicate wells
# Description: (§1) The CCK8 cell viability assay (CCK8) was adopted. Its principle is mainly based on the reduction reaction of WST-8 (chemical name: 2-(2-methoxy-4-nitrophenyl)-3-(4-nitrophenyl)-5-(2,4-disulfophenyl)-2H-tetrazolium monosodium salt). In the presence of living cells, WST-8 can be reduced by dehydrogenases in mitochondria to generate a highly water-soluble orange-yellow formazan product. The color intensity is directly proportional to the number of living cells, wherein the quantity of living cells can be indirectly reflected by measuring the absorbance of formazan products (typically at a wavelength of 450 nm). The CCK-8 assay is widely used in cell proliferation assay, cytotoxicity assay and tumor drug sensitivity test.
# In in vitro experiments, the compound stock solution was prepared into 10 mM with DMSO and diluted with a culture medium before use. The 293T cell line was used for preliminary concentration screening of the compound, wherein concentration gradients were set as follows: 5 µmol, 10 µmol, 20 µmol, 40 µmol, 80 µmol and 160 µmol. After the cells were treated with the compound for 24 h, the CCK8 detection kit was used, wherein the cell viability was calculated based on the absorbance values detected by a microplate reader. Data processing was performed using GraphPad Prism software to plot the IC50 curve.
# [2] = CCK8 cell viability (toxicity) assay in primary neurons; format: cell-based, mouse; conditions: ICR, mouse, primary hippocampal neurons, 24 h, CCK8, three replicate wells
# Description: as §1
# (§2) Primary hippocampal neuron culture: After ICR fetal mice at 18-21 days of gestation (E18-E21) were anesthetized, the fetal mice were dissected in a clean area and immersed in 75% ethanol for 1-2 min. The mouse head was taken out, the surface skull was removed with micro-scissors, and the brain tissue was transferred to an anatomical dissociation solution. Under a microscope, blood vessels and meninges were removed, hippocampal tissue was isolated, the extracted hippocampal tissue was placed in a 3.5 cm dish containing the anatomical dissociation solution, and the hippocampal tissue was cut into small fragments using micro-scissors. The minced hippocampal tissue was transferred to a 7 ml EP tube using a pipette gun. The hippocampal tissue hereinabove was centrifuged at 1000 rpm for 3-5 min, and the anatomical separation solution was discarded. 0.5-1 ml of papain digestion solution was added to the EP tube hereinabove, and the EP tube was placed in a 37°C incubator for 30 min. 300 µL of Trituration buffer 300 (DNase) and 5 mL of complete medium were added, and the hippocampal tissue was gently pipetted more than 10 times. The cell suspension was allowed to stand for 3 min, and 3-4 ml of supernatant was gently aspirated into a 15 ml tube using a pipette. 3-4 ml of complete medium was added again, and the hippocampal tissue was gently pipetted more than 10 times. Step 8 was repeated, and 3-4 ml of supernatant was transferred to the same 15 ml tube again. The previous step was repeated again. The collected supernatant was centrifuged at 1000 rpm, the supernatant was discarded, and 5 ml of complete medium was added. The mixture was gently pipetted and suspended, and then centrifuged again at 1000 rpm for 5 min. The complete medium was added to resuspend the cells, and then a portion of the cells was aspirated for counting. Generally, when neuronal cells were planted in a 24-well plate, the concentration of the cell suspension was generally 2×10^5/ml, and 500 µl of cells is inoculated per well. The resuspended neuron cells with a diluted ratio were seeded onto a glass slide treated with PDL, then the glass slide was placed in a 37°C incubator for 10 min, an appropriate amount of complete medium was added, and then the culture is continued in the incubator.
# [3] = system: primary neurons; test: as above; format: cell-based, mouse; conditions: 24 h, CCK8, three replicate wells
# Description: as §1, §2
# [4] = system: APP/PS1 transgenic mice; test: Morris water maze in APP/PS1 x Thy1-GFP mice; format: in vivo
# Description: Thy1-GFP mice are commonly used in neuroscience research. The fluorescence labeling of GFP facilitates convenient observation and tracking of specific cell types, especially neurons. APP/PS1 transgenic mice (an animal model of Alzheimer's disease) were crossed with Thy1-GFP mice. The crossed mice aged 5 months were intraperitoneally injected with a compound solution at a concentration of 2.5 mg/kg for 1 month continuously. Subsequently, the crossed mice aged 6 months were subjected to behavioral test (Morris water maze MWM experiment) to evaluate learning and memory abilities (as shown in FIG. 22).
# Water maze: A water maze experimental apparatus is circular stainless steel with a diameter of 100 cm and a height of 50 cm, wherein a pool is equally divided into 4 quadrants according to the 4 orientations of east, south, west and north, a circular black hidden platform with a diameter of 9 cm and a height of 27 cm is placed in the center of the target quadrant. […] The movement trajectory of the mouse was synchronously recorded by the camera directly above the water pool, and analyzed by the EthovisionXT monitoring and analysis system. […] The mouse swam in the water for 60 s, and the percentage of time the mouse spent in the target platform quadrant was recorded, representing the learning and memory ability of the mouse.
smiles,measurement,setting,value
"CCOC(=O)c1[nH]c(C)c(CCC(=O)N2CCCC(C(=O)NCCN3CCCCCC3)C2)c1C (stereo not drawn) [compound of Formula I, ETHYL4-[3-(3-{[2-(AZEPAN-1-YL)ETHYL]CARBAMOYL}PIPERIDIN-1-YL)-3-OXOPROPYL]-3, 5-DIMETHYL-1H-PYRROLE-2-CARBOXYLATE]",cell viability,[1]; 5 µmol,106.6% and 109.2%
same,cell viability,[1]; 10 µmol,109.8% and 96.54%
same,cell viability,[1]; 20 µmol,95.56% and 93.46%
same,cell viability,[1]; 40 µmol,86.71% and 78.81%
same,cell viability,[1]; 80 µmol,24% and 23.36%
same,cell viability,[1]; 160 µmol,32.01% and 28.26%
same,"viability at 24 h, 1.25 µmol",[2]; 1.25 µmol,94.5%
same,"viability at 24 h, 5 µmol",[2]; 5 µmol,70.7%
same,"viability at 24 h, 10 µmol",[2]; 10 µmol,51.8%
same,"viability at 24 h, 20 µmol",[2]; 20 µmol,37.1%
same,"viability at 24 h, 80 µmol",[2]; 80 µmol,4.02%
same,"viability at 24 h, 160 µmol",[2]; 160 µmol,4.65%
same,"viability at 24 h, 2.5 µmol",[2],90.6%
same,cell viability,[3]; 1.25 µmol,88.68% and 77.1%
same,cell viability,[3]; 5 µmol,77.35% and 75.31%
same,cell viability,[3]; 10 µmol,58.82% and 65.03%
same,cell viability,[3]; 20 µmol,40.38% and 35.57%
same,cell viability,[3]; 40 µmol,23.14% and 48.19% and 36.68%
same,cell viability,[3]; 160 µmol,3.329% and 5.244%
same,time percentage in the platform quadrant,"[4]; APP/PS1+ intervention, IP 2.5 mg/kg for 1 month, day 7 spatial exploration, individual animals, 2.5 mg/kg",12.17% and 26.78% and 27.89% and 19.335% and 31.945% and 22% and 29.11%
same,time percentage of mice in the platform quadrant,[4]; after compound intervention vs APP/PS1 mice,increased
